In ChEMBL document CHEMBL1135946, “Design, synthesis and biological activity of novel non-amidine factor Xa inhibitors. Part 1: P(1) structure-activity relationships of the substituted 1-(2-Naphthyl)-1H-pyrazole-5-carboxylamides” (Bioorg Med Chem Lett, 2002):

How the values were obtained:
Prothrombin = Prothrombin (Homo sapiens, UniProt P00734); assay: Inhibitory activity against thrombin
Plasminogen = Plasminogen (Homo sapiens, UniProt P00747); assay: Inhibitory activity against plasmin
Kallikrein-1 = Kallikrein-1 (Homo sapiens, UniProt P06870); assay: Inhibitory activity against kallikrein
Kallikrein-1, sequence (P06870 whole entry): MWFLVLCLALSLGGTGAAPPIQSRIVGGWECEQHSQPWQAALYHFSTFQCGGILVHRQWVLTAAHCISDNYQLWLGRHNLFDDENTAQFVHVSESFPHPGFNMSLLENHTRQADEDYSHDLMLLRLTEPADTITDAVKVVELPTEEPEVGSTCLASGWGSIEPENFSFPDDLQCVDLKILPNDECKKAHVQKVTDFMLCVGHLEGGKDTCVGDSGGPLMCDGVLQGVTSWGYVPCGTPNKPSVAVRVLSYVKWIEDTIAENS

Coagulation factor X [1] = target: T1, Coagulation factor X (Homo sapiens, UniProt P00742); assay: Inhibitory activity against coagulation factor Xa
T1 sequence (P00742 41-179 limits assumed): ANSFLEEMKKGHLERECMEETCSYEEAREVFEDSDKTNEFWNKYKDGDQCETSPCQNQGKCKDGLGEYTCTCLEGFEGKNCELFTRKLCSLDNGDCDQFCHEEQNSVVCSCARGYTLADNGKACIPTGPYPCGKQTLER
T1 sequence (P00742 235-488 limits assumed): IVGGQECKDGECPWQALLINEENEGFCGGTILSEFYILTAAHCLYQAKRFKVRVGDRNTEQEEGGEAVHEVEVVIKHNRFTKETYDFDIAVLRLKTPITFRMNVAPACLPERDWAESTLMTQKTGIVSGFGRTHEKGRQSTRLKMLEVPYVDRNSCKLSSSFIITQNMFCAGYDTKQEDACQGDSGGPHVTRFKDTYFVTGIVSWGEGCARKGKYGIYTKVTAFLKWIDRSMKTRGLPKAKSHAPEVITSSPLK

Serine protease 1 = Serine protease 1 (Homo sapiens, UniProt P07477); assay: Inhibitory activity against trypsin
Serine protease 1, sequence (P07477 whole entry): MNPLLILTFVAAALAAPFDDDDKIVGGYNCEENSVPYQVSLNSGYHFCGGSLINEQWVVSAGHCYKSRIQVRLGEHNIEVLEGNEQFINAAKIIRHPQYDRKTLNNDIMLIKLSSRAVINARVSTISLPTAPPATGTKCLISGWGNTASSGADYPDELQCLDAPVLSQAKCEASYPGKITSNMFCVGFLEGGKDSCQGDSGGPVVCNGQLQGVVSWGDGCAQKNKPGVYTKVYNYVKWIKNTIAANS

[2] = target: Vitamin K-dependent protein C (Homo sapiens, UniProt P04070); assay: Inhibitory activity against activated protein C
Vitamin K-dependent protein C, sequence (P04070 43-197 limits assumed): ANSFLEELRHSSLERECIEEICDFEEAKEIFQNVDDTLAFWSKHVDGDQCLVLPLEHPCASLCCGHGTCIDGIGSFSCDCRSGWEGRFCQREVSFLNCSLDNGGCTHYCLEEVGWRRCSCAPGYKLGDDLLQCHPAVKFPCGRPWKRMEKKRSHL
Vitamin K-dependent protein C, sequence (P04070 212-461 limits assumed): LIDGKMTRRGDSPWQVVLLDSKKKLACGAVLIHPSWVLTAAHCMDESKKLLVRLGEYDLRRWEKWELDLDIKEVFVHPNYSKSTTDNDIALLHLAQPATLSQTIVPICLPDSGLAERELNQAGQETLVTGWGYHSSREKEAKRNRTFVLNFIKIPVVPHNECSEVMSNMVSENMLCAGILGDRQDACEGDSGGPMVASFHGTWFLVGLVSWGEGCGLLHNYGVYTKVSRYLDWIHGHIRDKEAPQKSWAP

[3] = Tested for half life value after oral administration at dosage of 4 mg/kg in rat; type: ADME, organism-based; parameters: dose 4 mg/kg, route oral; conditions: in vivo
[4] = Clearance after iv administration to Sprague-Dawley rat at dosage of 0.2 mg/kg; type: ADME, organism-based; parameters: dose 0.2 mg/kg, route intravenous; conditions: in vivo
[5] = Tested for percent bioavailability after oral administration to Sprague-Dawley rat at dosage of 4 mg/kg; conditions: in vivo, read-out: Bioavailabiility
[6] = Tested for half life value after intravenous administration at dose of 0.2 mg/kg in rat; type: ADME, organism-based; parameters: dose 0.2 mg/kg, route intravenous; conditions: in vivo
Coagulation factor X [7] = target: T1, Coagulation factor X; assay: Tested for inhibitory activity against Coagulation factor Xa (trypsin-like serine protease) of the compound
[8] = Tested for volume of distribution after intravenous administration to Sprague-Dawley rat at dosage of 0.2 mg/kg; type: ADME, organism-based; parameters: dose 0.2 mg/kg, route intravenous; conditions: in vivo, read-out: Volume of distribution
[9] = Oral bioavailability in rat by oral dosing; type: ADME, organism-based; conditions: in vivo
[10] = Half-life was determined; type: ADME, organism-based; conditions: rat, in vivo

Plasminogen, sequence (P00747 97-580 limits assumed): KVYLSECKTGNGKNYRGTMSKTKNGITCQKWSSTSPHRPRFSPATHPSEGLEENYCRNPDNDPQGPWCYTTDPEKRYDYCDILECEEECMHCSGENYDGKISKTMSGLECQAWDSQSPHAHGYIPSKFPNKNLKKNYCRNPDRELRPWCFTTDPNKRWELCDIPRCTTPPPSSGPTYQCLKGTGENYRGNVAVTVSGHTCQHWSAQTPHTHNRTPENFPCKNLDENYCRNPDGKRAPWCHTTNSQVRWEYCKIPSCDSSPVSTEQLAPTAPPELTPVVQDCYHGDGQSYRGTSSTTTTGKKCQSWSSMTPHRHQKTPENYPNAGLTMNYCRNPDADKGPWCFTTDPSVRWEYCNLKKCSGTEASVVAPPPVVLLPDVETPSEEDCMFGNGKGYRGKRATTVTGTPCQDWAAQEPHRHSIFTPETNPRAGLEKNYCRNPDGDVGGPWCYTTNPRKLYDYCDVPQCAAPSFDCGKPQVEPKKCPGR
Plasminogen, sequence (P00747 581-810 limits assumed): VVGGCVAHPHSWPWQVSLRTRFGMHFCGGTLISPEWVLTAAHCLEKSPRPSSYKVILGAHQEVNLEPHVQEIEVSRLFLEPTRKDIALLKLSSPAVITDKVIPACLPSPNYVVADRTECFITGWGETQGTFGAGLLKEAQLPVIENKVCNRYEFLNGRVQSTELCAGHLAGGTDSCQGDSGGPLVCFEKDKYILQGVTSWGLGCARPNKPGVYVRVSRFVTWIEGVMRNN

Row | Structure (SMILES) | IC50 (Prothrombin) [µM] | IC50 (Plasminogen) [µM] | IC50 (Kallikrein-1) [µM] | IC50 (Coagulation factor X [1]) [µM] | IC50 (Serine protease 1) [µM] | IC50 [2] [µM] | half-life [3] [h] | clearance [4] [mL/min/kg] | bioavailability [5] [%] | half-life [6] [h] | Ki (Coagulation factor X [7]) [µM] | Vd [8] [L/kg] | bioavailability [9] [%] | half-life [10] [h]
1 | COC(=O)c1cc2ccccc2cc1-n1nc(C)cc1C(=O)Nc1ccc(-c2ccccc2S(N)(=O)=O)cc1 | > 11 | > 11 | > 11 | 0.545 | > 11 | > 11 |  |  |  |  |  |  |  | 
2 | Cc1cc(C(=O)Nc2ccc(-c3ccccc3S(N)(=O)=O)cc2)n(-c2nc3ccc(Cl)cc3s2)n1 |  |  |  | > 11 |  |  |  |  |  |  |  |  |  | 
3 | Cc1cc(C(=O)Nc2ccc(-c3ccccc3S(N)(=O)=O)cc2)n(-c2cc3ccccc3cc2S(N)(=O)=O)n1 | > 11 | > 11 | > 11 | 0.024 | > 11 | > 11 |  |  |  |  |  |  |  | 
4 | Cc1cc(C(=O)Nc2ccc(-c3ccccc3S(N)(=O)=O)cc2)n(-c2cc3ccccc3cc2CN)n1 | > 11 | > 11 | > 11 | 0.038 | > 11 | > 11 |  |  |  |  |  |  |  | 
5 | Cc1cc(C(=O)Nc2ccc(-c3ccccc3S(N)(=O)=O)cc2)n(-c2ccc3cc(O)ccc3c2)n1 | > 11 | > 11 | > 11 | 3.51 | > 11 | > 11 |  |  |  |  |  |  |  | 
6 | Cc1cc(C(=O)Nc2ccc(-c3ccccc3S(N)(=O)=O)cc2)n(-c2cc3ccccc3cc2C(=N)N)n1 | > 11 | > 11 | > 11 | 0.021 | > 11 | > 11 |  |  |  |  |  |  |  | 
7 | COc1ccc2cc(-n3nc(C)cc3C(=O)Nc3ccc(-c4ccccc4S(N)(=O)=O)cc3)ccc2c1 | > 11 | > 11 | > 11 |  | > 11 | > 11 |  |  |  |  |  |  |  | 
8 | Cc1cc(C(=O)Nc2ccc(-c3ccccc3S(N)(=O)=O)cc2)n(-c2cc3ccccc3cc2C#N)n1 | > 11 | > 11 | > 11 | 0.006 | > 11 | > 11 |  |  |  |  |  |  |  | 
9 | Cc1cc(C(=O)Nc2ccc(-c3ccccc3S(N)(=O)=O)cc2)n(-c2cc3ccccc3cc2C2=NCCN2)n1 | > 11 | > 11 | > 11 | 7.82 | > 11 | > 11 |  |  |  |  |  |  |  | 
10 | NS(=O)(=O)c1ccccc1-c1ccc(NC(=O)c2cc(C(F)(F)F)nn2-c2cc3ccccc3cc2F)cc1 |  |  |  | 0.027 |  |  |  |  |  |  |  |  |  | 
11 | Cc1cc(C(=O)Nc2ccc(-c3ccccc3S(N)(=O)=O)cc2)n(-c2cc3ccccc3cc2F)n1 | > 11 | > 11 | > 11 | 0.009 | > 11 | > 11 | 6 | 17.7 | 22 | 1.7 | 0.0057 | 2.6 |  | 
12 | Cc1cc(C(=O)Nc2ccc(-c3ccccc3S(N)(=O)=O)cc2)n(-c2cc3ccccc3cc2CO)n1 | > 11 | > 11 | > 11 | 0.483 | > 11 | > 11 |  |  |  |  |  |  |  | 
13 | Cc1cc(C(=O)Nc2ccc(-c3ccccc3S(N)(=O)=O)cc2)n(-c2ccc3cc(Br)ccc3c2)n1 | > 11 | > 11 | > 11 | 0.018 | > 11 | > 11 |  |  |  |  |  |  |  | 
14 | Cc1cc(C(=O)Nc2ccc(-c3ccccc3S(N)(=O)=O)cc2)n(-c2cc3ccccc3cc2C(=O)O)n1 | > 11 | > 11 | > 11 | 0.376 | > 11 | > 11 |  |  |  |  |  |  |  | 
15 | Cc1cc(C(=O)Nc2ccc(-c3ccccc3S(N)(=O)=O)cc2)n(-c2cc3ccccc3cc2C(=N)N(C)C)n1 | > 11 | > 11 | > 11 | 1.65 | > 11 | > 11 |  |  |  |  |  |  |  | 
16 | Cc1cc(C(=O)Nc2ccc(-c3ccccc3S(N)(=O)=O)cc2)n(-c2cc3ccccc3cc2C(N)=O)n1 | > 11 | > 11 | > 11 | 0.024 | > 11 | > 11 |  |  |  |  |  |  |  | 
17 | Cc1cc(C(=O)Nc2ccc(-c3ccccc3S(N)(=O)=O)cc2)n(-c2cc3ccccc3cc2S(C)(=O)=O)n1 | > 11 | > 11 | > 11 | 0.045 | > 11 | > 11 |  |  |  |  |  |  |  | 
18 | Cc1cc(C(=O)Nc2ccc(-c3ccccc3S(N)(=O)=O)cc2)n(-c2ccc3cc(Cl)ccc3c2)n1 | > 11 | > 11 | > 11 | 0.011 | > 11 | > 11 |  |  |  |  |  |  |  | 
19 | Cc1cc(C(=O)Nc2ccc(-c3ccccc3S(N)(=O)=O)cc2)n(-c2ccc3ccccc3c2)n1 | > 11 | > 11 | > 11 | 0.104 | > 11 | > 11 |  |  |  |  |  |  | 24.5 | 2.4
20 | Cc1cc(C(=O)Nc2ccc(-c3ccccc3S(N)(=O)=O)cc2)n(-c2cc3ccccc3cc2O)n1 | > 11 | > 11 | > 11 | > 11 | > 11 | > 11 |  |  |  |  |  |  |  | 
21 | NS(=O)(=O)c1ccccc1-c1ccc(NC(=O)c2cc(C(F)(F)F)nn2-c2ccc3cc(Cl)ccc3c2)cc1 |  |  |  | 0.004 |  |  |  |  |  |  |  |  |  | 
22 | Cc1cc(C(=O)Nc2ccc(-c3ccccc3S(N)(=O)=O)cc2)n(-c2cc3ccccc3cc2Br)n1 | > 11 | > 11 | > 11 | 0.143 | > 11 | > 11 |  |  |  |  |  |  |  | 
